Measured values reported in article PMC7673538 (PLoS Biology, 2020).
Like-named read-outs stand apart in the source and are kept apart here.

Assays:
PV-1 = test: microbe, parasite or virus in culture; type: cell-based, poliovirus 1; settings: Enterovirus C, HeLa R19, read-out: EC50 PV-1
HRV-B14 = test: microbe, parasite or virus in culture; type: cell-based, human rhinovirus; settings: for EC50: Human rhinovirus sp.
EV-A71 = test: microbe, parasite or virus in culture; type: cell-based, enterovirus A71; settings: Enterovirus A
HRV-A2 = test: microbe, parasite or virus in culture; type: cell-based, human rhinovirus; settings: for EC50: Human rhinovirus sp., HRVA2, HeLa R19, read-out: EC50 HRV-A2
CV-A24 = test: microbe, parasite or virus in culture; type: cell-based, coxsackievirus A24; settings: Enterovirus C, CVA24, HeLa R19, read-out: EC50 CV-A24
in vitro [1] = settings: human
CV-B3 [2] = test: microbe, parasite or virus in culture; type: cell-based, coxsackievirus B3; settings: for EC50: Enterovirus B
in vitro [3] = settings: human; remark: listed apart in the source
CV-B3 [4] = test: microbe, parasite or virus in culture; type: cell-based, coxsackievirus B3; settings: Enterovirus B, CVB3, BGM
EV-D68 = test: microbe, parasite or virus in culture; type: cell-based, enterovirus D68; settings: for EC50: Enterovirus D
in vitro [5] = settings: monkey
CV-B3 [6] = test: microbe, parasite or virus in culture; type: cell-based, coxsackievirus B3; settings: for EC50: Enterovirus B; remark: listed apart in the source
[7] = test system: representative EVs and RVs; type: cell-based
[8] = HRVB14, HeLa R19, read-out: EC50 HRV-B14
[9] = EVA71, HeLa R19, read-out: EC50 EV-A71
[10] = EVA71, HeLa R19, read-out: EC50 Exp1
[11] = EVA71, HeLa R19, read-out: EC50 Exp2
[12] = CVB3, HAP1, read-out: Exp 1 EC50 Hap1
[13] = CVB3, HAP1, read-out: Exp 2 EC50 Hap1
[14] = EVD68, HeLa R19, read-out: EC50 EV-D68
[15] = EVD68, HeLa R19, read-out: EC50 Exp1
[16] = EVD68, HeLa R19, read-out: EC50 Exp2
[17] = CVB3, HeLa R19, read-out: CV-B3 EC50 Average
[18] = CVB3, HeLa R19, read-out: CV-B3 Exp 1 EC50
[19] = CVB3, HeLa R19, read-out: CV-B3 Exp2 EC50
[20] = CVB3, HeLa R19, read-out: EC50 HelaR19 Average
[21] = CVB3, HeLa R19, read-out: Exp 1 EC50 HelaR19
[22] = CVB3, HeLa R19, read-out: Exp 2 EC50 HelaR19
[23] = CVB3, HAP1, read-out: EC50 Hap1 Average

Compound: CC(C)c1ccc(CN(C(=O)c2ccco2)c2ccccc2)cc1 [Compound 19h, N-(4-Isopropylbenzyl)-N-phenylfuran-2-carboxamide]
- EC50 (PV-1): > 30 µM
- EC50 (HRV-B14; HRVB14, HeLa R19, read-out: EC50 Exp1): 5.55 µM
- EC50 (HRV-B14; HRVB14, HeLa R19, read-out: EC50 Exp2): 3.72 µM
- EC50 (HRV-B14; [8]): 4.64 ± 0.92 µM
- EC50 (EV-A71; [9]): 1.89 ± 0.21 µM
- EC50 (EV-A71; [10]): 1.68 µM
- EC50 (EV-A71; [11]): 2.1 µM
- EC50 (HRV-A2): > 30 µM
- EC50 (CV-A24): > 30 µM
- CC50 (in vitro [1]; CC50 Average): > 30 µM
- CC50 (in vitro [1]; CC50 HelaR19 Average): 42.7 µM
- CC50 (in vitro [1]; Exp 1 CC50): > 30 µM
- CC50 (in vitro [1]; Exp 1 CC50 HelaR19): 44.5 µM
- CC50 (in vitro [1]; Exp2 CC50): > 30 µM
- CC50 (in vitro [1]; Exp 2 CC50 HelaR19): 41 µM
- antiviral activity against CV-B3 in HAP1 cells (in words) (CV-B3 [2]): showed antiviral activity
- EC50 (CV-B3 [2]; [12]): 4.28 µM
- EC50 (CV-B3 [2]; [13]): 3.98 µM
- CC50 (in vitro [3]; CC50 Hap1 Average): 48.7 µM
- CC50 (in vitro [3]; Exp 1 CC50 Hap1): 48.4 µM
- CC50 (in vitro [3]; Exp 2 CC50 Hap1): 49.1 µM
- EC50 (CV-B3 [4]): > 100 µM
- EC50 (EV-D68; [14]): > 30 µM
- EC50 (EV-D68; [15]): > 30 µM
- EC50 (EV-D68; [16]): > 30 µM
- CC50 (HeLa R19 cells; human): 42.8 ± 1.75 µM
- cytotoxicity (in words) (HeLa R19 cells; human, monkey): cytotoxicity in a similar range as the parental compound 1
- CC50 (in vitro [5]; CC50): 46.8 ± 1.48 µM
- CC50 (in vitro [5]; CC50 BGM Average): 46.8 µM
- CC50 (in vitro [5]; Exp 1 CC50 BGM): 45.4 µM
- CC50 (in vitro [5]; Exp 2 CC50 BGM): 48.3 µM
- antiviral activity against CV-B3 (in words) (CV-B3 [6]): showed antiviral activity
- effect of the substitution on antiviral activity against CV-B3 (in words) (CV-B3 [6]): decreased the antiviral activity to a larger extent
- EC50 (CV-B3 [6]; CVB3, HeLa): 7.62 ± 0.93 µM
- EC50 (CV-B3 [6]; [17]): 7.03 µM
- EC50 (CV-B3 [6]; [18]): 7.95 µM
- EC50 (CV-B3 [6]; [19]): 6.11 µM
- EC50 (CV-B3 [6]; [20]): 7.65 µM
- EC50 (CV-B3 [6]; [21]): 7.5 µM
- EC50 (CV-B3 [6]; [22]): 7.8 µM

Compound: O=C(c1ccco1)N(Cc1ccccc1)c1ccc(C(F)(F)F)cc1 [Compound 19i, N-benzyl-N-(4-(trifluoromethyl)phenyl)furan-2-carboxamide]
- EC50 (PV-1): > 30 µM
- EC50 (HRV-B14; [8]): > 30 µM
- EC50 (EV-A71; [9]): > 30 µM
- EC50 (HRV-A2): > 30 µM
- EC50 (CV-A24): > 30 µM
- CC50 (in vitro [1]; CC50 Average): > 30 µM
- CC50 (in vitro [1]; CC50 HelaR19 Average): 68.5 µM
- CC50 (in vitro [1]; Exp 1 CC50): > 30 µM
- CC50 (in vitro [1]; Exp 1 CC50 HelaR19): 68 µM
- CC50 (in vitro [1]; Exp2 CC50): > 30 µM
- CC50 (in vitro [1]; Exp 2 CC50 HelaR19): 69 µM
- EC50 (CV-B3 [2]; CVB3, HAP1): 1.75 ± 0.29 µM
- EC50 (CV-B3 [2]; [23]): 1.74 µM
- EC50 (CV-B3 [2]; [13]): 2.03 µM
- CC50 (in vitro [3]; CC50): > 100 µM
- CC50 (in vitro [3]; CC50 Hap1 Average): > 100 µM
- CC50 (in vitro [3]; Exp 1 CC50 Hap1): > 100 µM
- CC50 (in vitro [3]; Exp 2 CC50 Hap1): > 100 µM
- EC50 (CV-B3 [4]; read-out: EC50 BGM Average): 1.71 µM
- EC50 (CV-B3 [4]; read-out: Exp 1 EC50 BGM): 1.42 µM
- EC50 (CV-B3 [4]; read-out: Exp 2 EC50 BGM): 1.99 µM
- EC50 (EV-D68; [14]): 3.35 ± 0.19 µM
- EC50 (EV-D68; [15]): 3.16 µM
- EC50 (EV-D68; [16]): 3.54 µM
- cytotoxicity (in words) (HeLa R19 cells; human, monkey): cytotoxicity in a similar range as the parental compound 1
- CC50 (in vitro [5]; CC50): 55.4 ± 0.05 µM
- CC50 (in vitro [5]; CC50 BGM Average): 55.4 µM
- CC50 (in vitro [5]; Exp 1 CC50 BGM): 55.3 µM
- CC50 (in vitro [5]; Exp 2 CC50 BGM): 55.5 µM
- effect of the substitution on antiviral activity against CV-B3 (in words) (CV-B3 [6]): had little effect
- EC50 (CV-B3 [6]; CVB3, HeLa): 2.75 ± 0.25 µM
- EC50 (CV-B3 [6]; [17]): 2.45 µM
- EC50 (CV-B3 [6]; [18]): 2.35 µM
- EC50 (CV-B3 [6]; [19]): 2.55 µM
- EC50 (CV-B3 [6]; [20]): 2.78 µM
- EC50 (CV-B3 [6]; [21]): 2.52 µM
- EC50 (CV-B3 [6]; [22]): 3.03 µM

Compound: O=C(c1ccc[nH]1)N(Cc1ccc(C(F)(F)F)cc1)c1ccccc1 [Compound 22, N-Phenyl-N-(4-(trifluoromethyl)benzyl)-1H-pyrrole-2-carboxamide]
- EC50 (PV-1): > 30 µM
- EC50 (HRV-B14; [8]): > 30 µM
- EC50 (EV-A71; [9]): 1.27 ± 0.49 µM
- EC50 (EV-A71; [10]): 0.78 µM
- EC50 (EV-A71; [11]): 1.76 µM
- EC50 (HRV-A2): > 30 µM
- EC50 (CV-A24): > 30 µM
- CC50 (in vitro [1]; CC50 Average): > 30 µM
- CC50 (in vitro [1]; CC50 HelaR19 Average): > 100 µM
- CC50 (in vitro [1]; Exp 1 CC50): > 30 µM
- CC50 (in vitro [1]; Exp 1 CC50 HelaR19): > 100 µM
- CC50 (in vitro [1]; Exp2 CC50): > 30 µM
- CC50 (in vitro [1]; Exp 2 CC50 HelaR19): > 100 µM
- EC50 (CV-B3 [2]; [23]): 2.69 µM
- EC50 (CV-B3 [2]; [12]): 2.5 µM
- EC50 (CV-B3 [2]; [13]): 2.87 µM
- CC50 (in vitro [3]; CC50): > 100 µM
- CC50 (in vitro [3]; CC50 Hap1 Average): > 100 µM
- CC50 (in vitro [3]; Exp 1 CC50 Hap1): > 100 µM
- CC50 (in vitro [3]; Exp 2 CC50 Hap1): > 100 µM
- EC50 (CV-B3 [4]; read-out: EC50 BGM Average): 2.28 µM
- EC50 (CV-B3 [4]; read-out: Exp 1 EC50 BGM): 2.55 µM
- EC50 (CV-B3 [4]; read-out: Exp 2 EC50 BGM): 2.01 µM
- EC50 (EV-D68; [14]): 12.4 ± 0.81 µM
- EC50 (EV-D68; [15]): 11.6 µM
- EC50 (EV-D68; [16]): 13.2 µM
- cytotoxicity (in words) (HeLa R19 cells): did not show any cytotoxicity
- CC50 (in vitro [5]; CC50): > 100 µM
- CC50 (in vitro [5]; CC50 BGM Average): > 100 µM
- CC50 (in vitro [5]; Exp 1 CC50 BGM): > 100 µM
- CC50 (in vitro [5]; Exp 2 CC50 BGM): > 100 µM
- effect of the substitution on antiviral activity against CV-B3 (in words) (CV-B3 [6]): little, if any, effect on antiviral activity
- EC50 (CV-B3 [6]; [17]): 1.5 µM
- EC50 (CV-B3 [6]; [18]): 1.42 µM
- EC50 (CV-B3 [6]; [19]): 1.58 µM
- EC50 (CV-B3 [6]; [20]): 2.6 µM
- EC50 (CV-B3 [6]; [21]): 2.69 µM
- EC50 (CV-B3 [6]; [22]): 2.51 µM

Compound: (S)-fluoxetine [reference compound]
- inhibition of HRV-B14 replication (in words) (HRV-B14): inhibited
- inhibition of HRV-A2 replication (in words) (HRV-A2): inhibited
- cross-resistance of 19d-resistant EV-D68 virus pools (in words) (EV-D68): cross-resistance
- inhibition of EV-D68 replication (in words) (EV-D68): inhibited
- inhibition of contemporary/clinical isolates of EV-A71, CV-A24v and EV-D68 (in words) [7]: inhibited contemporary strains of EV-D68 and some, but not all, contemporary EV-A71 strains
- antiviral activity against CV-B3 (in words) (CV-B3 [6]): inhibited
- cross-resistance of 19d-resistant CV-B3 virus pools (in words) (CV-B3 [6]): cross-resistant
